Results published in patent publication US20260207623A1, “USE OF ESTETROL IN HEPATICALLY IMPAIRED PATIENTS” (ESTETRA SRL, priority 2022, published 2026).

Tested on: post-menopausal women
Test: Example 2 dose-finding study: weekly frequency of moderate to severe VMS (absolute and relative change, responders)
Assay type: in vivo, human
Conditions: for Weekly frequency of moderate to severe VMS, relative change (% from baseline), Mean: section B analysis
Excerpt: Enrolment was approximately 18 months. Individual subject participation was up to 27 weeks: up to 6 weeks pre-screening and washout, up to 4 weeks screening and run-in period, up to 91 days (13 weeks) of E4 monohydrate or placebo treatment followed by 2 weeks (14 days) of progestin therapy and a Follow up visit 1 week after completion of progestin therapy in non-hysterectomied subjects only.
To define the minimum effective dose (MED) of the oral dose of E4 by evaluating changes in frequency and in severity of moderate to severe vasomotor symptoms (VMS).
This was a prospective, multicentre, randomised, placebo-controlled, double-blinded, dose-finding study.
Eligible subjects were hysterectomied and non-hysterectomied post-menopausal women aged 40 to 65 years, inclusive, presenting at least 7 moderate to severe hot flushes/day or at least 50 moderate to severe hot flushes/week.
All treatments (Estetrol, hereinafter E4 as monohydrate, [2.5 mg, 5 mg, 10 mg, 15 mg] capsule) were administered once daily (QD) per os for at least 12 consecutive weeks until the last biological assessments (Day 91 maximum) had been performed.
In order to analyse the data recorded in this study, treatment groups have been compared using an ANCOVA (analysis of covariance) with respect to the change in weekly frequency of moderate to severe VMS from baseline to weeks 4 and 12. The ANCOVA model includes treatment (“trt1”) and study centre (“SITEPOOL”) as a fixed effect and baseline (“base”) as a covariate.
VMS frequency was also studied by grouping patients according to their degree of response.

C[C@]12CC[C@@H]3c4ccc(O)cc4CC[C@H]3[C@@H]1[C@@H](O)[C@@H](O)[C@@H]2O [E4 monohydrate, estetrol monohydrate]
Mean change from baseline in weekly frequency of moderate to severe VMS (2.5 mg QD, week 0): 0.00 | Mean relative change (% from baseline) in weekly frequency of moderate to severe VMS (2.5 mg QD, week 0): 0% | Mean relative change (% from baseline) in weekly frequency of moderate to severe VMS (2.5 mg QD, week 1): −23% | Mean relative change (% from baseline) in weekly frequency of moderate to severe VMS (2.5 mg QD, week 2): −34% | Mean relative change (% from baseline) in weekly frequency of moderate to severe VMS (2.5 mg QD, week 3): −44% | Mean relative change (% from baseline) in weekly frequency of moderate to severe VMS (2.5 mg QD, week 4): −49% | Mean relative change (% from baseline) in weekly frequency of moderate to severe VMS (2.5 mg QD, week 5): −50% | Mean relative change (% from baseline) in weekly frequency of moderate to severe VMS (2.5 mg QD, week 6): −54% | Mean relative change (% from baseline) in weekly frequency of moderate to severe VMS (2.5 mg QD, week 7): −57% | Mean relative change (% from baseline) in weekly frequency of moderate to severe VMS (2.5 mg QD, week 8): −58% | Mean relative change (% from baseline) in weekly frequency of moderate to severe VMS (2.5 mg QD, week 9): −61% | Mean relative change (% from baseline) in weekly frequency of moderate to severe VMS (2.5 mg QD, week 10): −61% | Mean relative change (% from baseline) in weekly frequency of moderate to severe VMS (2.5 mg QD, week 11): −60% | Mean relative change (% from baseline) in weekly frequency of moderate to severe VMS (2.5 mg QD, week 12): −61% | Mean change from baseline in weekly frequency of moderate to severe VMS (5 mg QD, week 0): 0.00 | Mean relative change (% from baseline) in weekly frequency of moderate to severe VMS (5 mg QD, week 0): 0% | Mean relative change (% from baseline) in weekly frequency of moderate to severe VMS (5 mg QD, week 1): −23% | Mean relative change (% from baseline) in weekly frequency of moderate to severe VMS (5 mg QD, week 2): −33% | Mean relative change (% from baseline) in weekly frequency of moderate to severe VMS (5 mg QD, week 3): −38% | Mean relative change (% from baseline) in weekly frequency of moderate to severe VMS (5 mg QD, week 4): −43% | Mean relative change (% from baseline) in weekly frequency of moderate to severe VMS (5 mg QD, week 5): −47% | Mean relative change (% from baseline) in weekly frequency of moderate to severe VMS (5 mg QD, week 6): −57% | Mean relative change (% from baseline) in weekly frequency of moderate to severe VMS (5 mg QD, week 7): −57% | Mean relative change (% from baseline) in weekly frequency of moderate to severe VMS (5 mg QD, week 8): −57% | Mean relative change (% from baseline) in weekly frequency of moderate to severe VMS (5 mg QD, week 9): −59% | Mean relative change (% from baseline) in weekly frequency of moderate to severe VMS (5 mg QD, week 10): −60% | Mean relative change (% from baseline) in weekly frequency of moderate to severe VMS (5 mg QD, week 11): −63% | Mean relative change (% from baseline) in weekly frequency of moderate to severe VMS (5 mg QD, week 12): −62% | Mean relative change (% from baseline) in weekly frequency of moderate to severe VMS (10 mg QD, week 1): −21% | Mean relative change (% from baseline) in weekly frequency of moderate to severe VMS (10 mg QD, week 2): −37% | Mean relative change (% from baseline) in weekly frequency of moderate to severe VMS (10 mg QD, week 3): −48% | Mean relative change (% from baseline) in weekly frequency of moderate to severe VMS (10 mg QD, week 4): −55% | Mean relative change (% from baseline) in weekly frequency of moderate to severe VMS (10 mg QD, week 5): −60% | Mean relative change (% from baseline) in weekly frequency of moderate to severe VMS (10 mg QD, week 6): −65% | Mean relative change (% from baseline) in weekly frequency of moderate to severe VMS (10 mg QD, week 10): −70% | Mean relative change (% from baseline) in weekly frequency of moderate to severe VMS (10 mg QD, week 11): −70% | Mean relative change (% from baseline) in weekly frequency of moderate to severe VMS (10 mg QD, week 12): −72% | Weekly frequency of moderate to severe VMS, relative change (% from baseline), Mean (10 mg daily, week 0): 0% | Weekly frequency of moderate to severe VMS, relative change (% from baseline), Mean (10 mg daily, week 1): −21% | Weekly frequency of moderate to severe VMS, relative change (% from baseline), Mean (10 mg daily, week 2): −37% | Weekly frequency of moderate to severe VMS, relative change (% from baseline), Mean (10 mg daily, week 3): −48% | Weekly frequency of moderate to severe VMS, relative change (% from baseline), Mean (10 mg daily, week 4): −55% | Weekly frequency of moderate to severe VMS, relative change (% from baseline), Mean (10 mg daily, week 5): −60% | Weekly frequency of moderate to severe VMS, relative change (% from baseline), Mean (10 mg daily, week 6): −65% | Weekly frequency of moderate to severe VMS, relative change (% from baseline), Mean (10 mg daily, week 7): −66% | Weekly frequency of moderate to severe VMS, relative change (% from baseline), Mean (10 mg daily, week 8): −68% | Weekly frequency of moderate to severe VMS, relative change (% from baseline), Mean (10 mg daily, week 9): −69% | Weekly frequency of moderate to severe VMS, relative change (% from baseline), Mean (10 mg daily, week 10): −70% | Weekly frequency of moderate to severe VMS, relative change (% from baseline), Mean (10 mg daily, week 11): −70% | Weekly frequency of moderate to severe VMS, relative change (% from baseline), Mean (10 mg daily, week 12): −72% | Mean relative change (% from baseline) in weekly frequency of moderate to severe VMS (15 mg QD, week 2): −46% | Mean relative change (% from baseline) in weekly frequency of moderate to severe VMS (15 mg QD, week 3): −57% | Mean relative change (% from baseline) in weekly frequency of moderate to severe VMS (15 mg QD, week 4): −67% | Mean relative change (% from baseline) in weekly frequency of moderate to severe VMS (15 mg QD, week 8): −79% | Mean relative change (% from baseline) in weekly frequency of moderate to severe VMS (15 mg QD, week 10): −80% | Mean relative change (% from baseline) in weekly frequency of moderate to severe VMS (15 mg QD, week 11): −82% | Mean relative change (% from baseline) in weekly frequency of moderate to severe VMS (15 mg QD, week 12): −84% | Weekly frequency of moderate to severe VMS, relative change (% from baseline), Mean (15 mg daily, week 0): 0% | Weekly frequency of moderate to severe VMS, relative change (% from baseline), Mean (15 mg daily, week 1): −22% | Weekly frequency of moderate to severe VMS, relative change (% from baseline), Mean (15 mg daily, week 2): −46% | Weekly frequency of moderate to severe VMS, relative change (% from baseline), Mean (15 mg daily, week 3): −57% | Weekly frequency of moderate to severe VMS, relative change (% from baseline), Mean (15 mg daily, week 4): −67% | Weekly frequency of moderate to severe VMS, relative change (% from baseline), Mean (15 mg daily, week 5): −72% | Weekly frequency of moderate to severe VMS, relative change (% from baseline), Mean (15 mg daily, week 6): −76% | Weekly frequency of moderate to severe VMS, relative change (% from baseline), Mean (15 mg daily, week 7): −79% | Weekly frequency of moderate to severe VMS, relative change (% from baseline), Mean (15 mg daily, week 8): −79% | Weekly frequency of moderate to severe VMS, relative change (% from baseline), Mean (15 mg daily, week 9): −81% | Weekly frequency of moderate to severe VMS, relative change (% from baseline), Mean (15 mg daily, week 10): −80% | Weekly frequency of moderate to severe VMS, relative change (% from baseline), Mean (15 mg daily, week 11): −82% | Weekly frequency of moderate to severe VMS, relative change (% from baseline), Mean (15 mg daily, week 12): −84% | efficacy on vasomotor parameters (two lowest doses tested (2.5 mg per day and 5 mg per day)): did not show efficacy
